Among the data in PubChem BioAssay (NCI) are GI50 and TGI values, retold here.

Some test systems named below: HOP-62 NSCLC; SN12C renal; TK-10 renal; U251 CNS; CCRF-CEM leukemia; SNB-19 CNS; NCI-H23 lung; KM12 colon; UO-31 renal; NCI-H522 lung.
Holding throughout (assay): NCI-60 cell line screen, 48 h

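Five compound concentrations were applied to cells in 96-well plates for 48 hours; endpoints were derived by simple linear interpolation of the resulting dose-response curve. GI50 = concentration required for 50% inhibition of growth. TGI is the concentration that stops growth completely.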

For the molecule `c1cc(OCCN2CCCCCC2)ccc1CNc1ccc2nc(CCC3CCCCC3)[nH]c2c1`, the GI50 is 1.85 µM with HOP-62 NSCLC; 1.64 µM with SN12C renal; 3.18 µM in the experiment on TK-10 renal; 1.6 µM in the experiment on U251 CNS; 2.08 µM in the experiment on CCRF-CEM leukemia; 3.05 µM in the experiment on SNB-19 CNS. For the same molecule, the GI50 in the experiment on NCI-H23 lung is 2.36 µM; in the experiment on KM12 colon, 2.84 µM; with UO-31 renal, 1.37 µM; with NCI-H522 lung it was 1.97 µM. Further, the TGI was found to be 3.81 µM with HOP-62 NSCLC; 4.57 µM with SN12C renal; 10.9 µM in the experiment on TK-10 renal; 3.17 µM in the experiment on U251 CNS; 10.1 µM with CCRF-CEM leukemia; 11.4 µM in the experiment with SNB-19 CNS. The TGI in the experiment on NCI-H23 lung came to 6.62 µM; in the experiment with KM12 colon, 9.07 µM; in the experiment on UO-31 renal, 2.72 µM; in the experiment with NCI-H522 lung, 4.34 µM.

In the case of `CC1(C)OC(C(N)=O)=C(C(N)=O)O1`, the TGI in the experiment on HOP-62 NSCLC, with SN12C renal, with TK-10 renal, with U251 CNS, in the experiment with CCRF-CEM leukemia and with SNB-19 CNS was more than 100 µM each time. Moreover, the TGI with NCI-H23 lung, with KM12 colon, with UO-31 renal and in the experiment with NCI-H522 lung was more than 100 µM each time.

On to `CCOC(=O)c1c(C)nc2ccc(Cl)cc2c1-c1ccccc1`, for which the GI50 in the experiment on HOP-62 NSCLC was 15 µM; with SN12C renal, 16.8 µM; in the experiment with TK-10 renal, 34.4 µM; in the experiment on U251 CNS, 19.1 µM; in the experiment with CCRF-CEM leukemia, 18.8 µM; in the experiment on SNB-19 CNS, 14.4 µM. Also, the GI50 is 28.7 µM in the experiment on NCI-H23 lung, 19.8 µM with KM12 colon, 14.8 µM with UO-31 renal and 14.2 µM with NCI-H522 lung. Besides, the TGI in the experiment on HOP-62 NSCLC is 31.7 µM; in the experiment with SN12C renal it was 32.7 µM; in the experiment on TK-10 renal it was more than 100 µM; in the experiment with U251 CNS, 40.6 µM; with CCRF-CEM leukemia, 48.9 µM; in the experiment on SNB-19 CNS it was 34.9 µM. Besides, the TGI with NCI-H23 lung was more than 100 µM; in the experiment on KM12 colon, 56.8 µM; in the experiment on UO-31 renal, 31.1 µM; with NCI-H522 lung it was 36.6 µM.

As to `COC(=O)C1(C(=O)OC)CC2c3c(c4ccccc4n3C)CC(C1=O)N2Cc1ccccc1` (stereo not given), the TGI with HOP-62 NSCLC, in the experiment with SN12C renal, with TK-10 renal, with U251 CNS, with CCRF-CEM leukemia and in the experiment on SNB-19 CNS was more than 100 µM each time. The TGI with NCI-H23 lung, with KM12 colon, in the experiment with UO-31 renal and with NCI-H522 lung was more than 100 µM throughout.

On to `Clc1cc(Cl)c(Cl)c(-c2nc(-c3cccnc3)cs2)c1`, for which the GI50 is 23.5 µM with HOP-62 NSCLC; 24.9 µM in the experiment on SN12C renal; 20.5 µM with TK-10 renal; 37.8 µM in the experiment on U251 CNS; 8.52 µM in the experiment with CCRF-CEM leukemia; 66.2 µM in the experiment with SNB-19 CNS. Besides, the GI50 is 30 µM in the experiment on NCI-H23 lung, 51.4 µM in the experiment on KM12 colon, 31 µM in the experiment with UO-31 renal and 9.22 µM with NCI-H522 lung. Moreover, the TGI in the experiment with HOP-62 NSCLC was 83.8 µM; in the experiment on SN12C renal, more than 100 µM; in the experiment with TK-10 renal, 56.6 µM; in the experiment with U251 CNS, more than 100 µM; with CCRF-CEM leukemia, 42 µM; in the experiment on SNB-19 CNS it was more than 100 µM. For the same molecule, the TGI in the experiment on NCI-H23 lung is more than 100 µM; in the experiment on KM12 colon, more than 100 µM; in the experiment on UO-31 renal, more than 100 µM; in the experiment on NCI-H522 lung, 38.3 µM.

`C/C=C/C=N/N(C(=O)c1cc([N+](=O)[O-])cc([N+](=O)[O-])c1)C1=NC(c2ccccc2)C(c2ccccc2)=NN1` (stereo not given): the TGI in the experiment on HOP-62 NSCLC, in the experiment with SN12C renal, in the experiment with TK-10 renal, in the experiment on U251 CNS, in the experiment with CCRF-CEM leukemia and in the experiment with SNB-19 CNS was more than 100 µM each time. Also, the TGI in the experiment on NCI-H23 lung was 77.9 µM; in the experiment with KM12 colon, more than 100 µM; in the experiment on UO-31 renal, more than 100 µM; with NCI-H522 lung, 57 µM.

Consider `O=C(O)CC(Nc1ccccc1)C(=O)O` (stereo not given), for which the TGI with HOP-62 NSCLC, in the experiment with SN12C renal, in the experiment with TK-10 renal, in the experiment on U251 CNS, in the experiment with CCRF-CEM leukemia and in the experiment with SNB-19 CNS was more than 100 µM each time. In addition, the TGI in the experiment on NCI-H23 lung, in the experiment with KM12 colon, in the experiment on UO-31 renal and in the experiment with NCI-H522 lung was more than 100 µM in each case.

On to `CC(=O)OCc1cc(OC(C)=O)cnc1COC(C)=O`, for which the TGI in the experiment on HOP-62 NSCLC, in the experiment with SN12C renal, with TK-10 renal, in the experiment on U251 CNS, with CCRF-CEM leukemia and with SNB-19 CNS was more than 100 µM throughout. In addition, the TGI in the experiment with NCI-H23 lung, in the experiment with KM12 colon, with UO-31 renal and in the experiment on NCI-H522 lung was more than 100 µM throughout.

On to `Cc1ccccc1NC(=O)C(=O)C(c1cnc2ccc([N+](=O)[O-])cc2n1)[N+](=O)[O-]` (stereo not given), for which the TGI in the experiment with HOP-62 NSCLC, in the experiment with SN12C renal, in the experiment with TK-10 renal, in the experiment with U251 CNS, in the experiment with CCRF-CEM leukemia and in the experiment with SNB-19 CNS was more than 100 µM each time. Moreover, the TGI in the experiment on NCI-H23 lung, in the experiment on KM12 colon, in the experiment on UO-31 renal and in the experiment on NCI-H522 lung was more than 100 µM throughout.

Take `COc1ccc(/C=C2\CN(Cc3cn(CCCNc4ccnc5cc(Cl)ccc45)nn3)C/C(=C\c3ccc(OC)c(OC)c3)C2=O)cc1OC`: the GI50 in the experiment on HOP-62 NSCLC was 2.42 µM; with SN12C renal it was 1.33 µM; in the experiment with TK-10 renal, 2.95 µM; in the experiment on U251 CNS it was 1.19 µM; in the experiment with CCRF-CEM leukemia, 0.571 µM; in the experiment with SNB-19 CNS, 1.85 µM. The GI50 in the experiment on NCI-H23 lung was 2.36 µM; in the experiment on KM12 colon, 0.304 µM; with UO-31 renal, 1.53 µM; in the experiment with NCI-H522 lung, 1.32 µM. In addition, the TGI stood at 4.54 µM with HOP-62 NSCLC; 3.12 µM with SN12C renal; 7.92 µM in the experiment on TK-10 renal; 3.88 µM in the experiment with U251 CNS; 8.65 µM in the experiment on CCRF-CEM leukemia; 7.62 µM with SNB-19 CNS. The TGI worked out at 7.26 µM in the experiment on NCI-H23 lung, 1.07 µM in the experiment with KM12 colon, 2.88 µM with UO-31 renal and 3.06 µM with NCI-H522 lung.
